Measured values reported in PMC11012124, “Synthesis of Novel Triazine-Based Chalcones and 8,9-dihydro-7H-pyrimido[4,5-b][1,4]diazepines as Potential Leads in the Search of Anticancer, Antibacterial and Antifungal Agents” (International Journal of Molecular Sciences, 2024).

How the values were obtained:
HCT-116 = assay: cells; details: Homo sapiens, HCT-116, 48 h; for CC50: read-out: LC50
HOP-62 = assay: cells; details: Homo sapiens, HOP-62, 48 h; for CC50: read-out: LC50
SN12C = assay: cells; details: Homo sapiens, 48 h; for CC50: read-out: LC50
MALME-3M = assay: cells; details: Homo sapiens, 48 h; for CC50: read-out: LC50
OVCAR-3 = assay: cells; details: Homo sapiens, OVCAR-3, 48 h
NCI-H226 = assay: cells; details: Homo sapiens, NCI-H226, 48 h; for CC50: read-out: LC50
LOX IMVI = assay: cells; details: Homo sapiens, 48 h; for CC50: read-out: LC50, LOX IMVI, 48 h
UO-31 = assay: cells; details: Homo sapiens, UO-31, 48 h; for CC50: read-out: LC50
SF-268 = assay: cells; details: Homo sapiens, SF-268, 48 h; for CC50: read-out: LC50
MOLT-4 = assay: cells; details: Homo sapiens, MOLT-4, 48 h; for CC50: read-out: LC50
HT29 = assay: cells; details: Homo sapiens, HT-29, 48 h; for CC50: read-out: LC50
COLO 205 = assay: cells; details: Homo sapiens, COLO 205, 48 h; for CC50: read-out: LC50
HS 578T = assay: cells; details: Homo sapiens, 48 h; for CC50: read-out: LC50
UACC-62 = assay: cells; details: Homo sapiens, UACC-62, 48 h; for CC50: read-out: LC50
EKVX = assay: cells; details: Homo sapiens, 48 h; for CC50: read-out: LC50
MDA-MB-435 = assay: cells; details: Homo sapiens, MDA-MB-435, 48 h; for CC50: read-out: LC50
OVCAR-8 = assay: cells; details: Homo sapiens, OVCAR-8, 48 h; for CC50: read-out: LC50
U251 = assay: cells; details: Homo sapiens, U-251, 48 h; for GI50: U251, 48 h; for CC50: read-out: LC50
ACHN = assay: cells; details: Homo sapiens, 48 h; for CC50: read-out: LC50
SF-295 = assay: cells; details: Homo sapiens, SF-295, 48 h; for CC50: read-out: LC50
M14 = assay: cells; details: Homo sapiens, M14, 48 h; for CC50: read-out: LC50
RPMI-8226 = assay: cells; details: Homo sapiens, RPMI-8226, 48 h; for CC50: read-out: LC50
T-47D = assay: cells; details: Homo sapiens, T47D, 48 h; for CC50: read-out: LC50
BT-549 = assay: cells; details: Homo sapiens, BT-549, 48 h; for CC50: read-out: LC50
A498 = assay: cells; details: Homo sapiens, A498, 48 h; for CC50: read-out: LC50
UACC-257 = assay: cells; details: Homo sapiens, UACC-257, 48 h; for CC50: read-out: LC50
DU-145 = assay: cells; details: Homo sapiens, DU-145, 48 h; for CC50: read-out: LC50
CCRF-CEM = assay: cells; details: Homo sapiens, 48 h; for CC50: read-out: LC50
OVCAR-5 = assay: cells; details: Homo sapiens, OVCAR-5, 48 h; for CC50: read-out: LC50
MCF7 = assay: cells; details: Homo sapiens, MCF7, 48 h; for CC50: read-out: LC50
SF-539 = assay: cells; details: Homo sapiens, SF-539, 48 h; for CC50: read-out: LC50, SF-539, 48 h
PC-3 = assay: cells; details: Homo sapiens, PC-3, 48 h; for CC50: read-out: LC50
HL-60(TB) = assay: cells; details: Homo sapiens, HL-60, 48 h; for CC50: read-out: LC50
60 cancer cell lines = assay: NCI-60 one-dose screen (10 μM); assay type: cell-based; details: Homo sapiens; one dose of 10 μM, mean over 60 cancer cell lines; read-out: Mean Growth Percent (MGP)
Source text: Additionally, the mean of the growth percentages (MGP) of each compound against all the 60 cancer cell lines is also reported, which is used as one of the selection criteria to continue with tests at five concentration doses.

MDA-MB-231/ATCC = assay: cells; details: Homo sapiens, MDA-MB-231, 48 h; for CC50: read-out: LC50
NCI-H322M = assay: cells; details: Homo sapiens, 48 h; for CC50: read-out: LC50
OVCAR-4 = assay: cells; details: Homo sapiens, OVCAR-4, 48 h; for CC50: read-out: LC50

## COc1cc(C2CC(c3ccc(Cl)cc3)=Nc3c(N)nc(N)nc3N2)ccc1Oc1nc(Nc2ccc(F)cc2)nc(N(C)C)n1 (stereo not shown) [29e]
HCT-116
  GI50: 12.5 µM
  CC50: > 100 µM
HOP-62
  GI50: > 100 µM
  CC50: > 100 µM
SN12C
  GI50: > 100 µM
  CC50: > 100 µM
MALME-3M
  GI50: > 100 µM
  CC50: > 100 µM
OVCAR-3
  GI50: > 100 µM
OVCAR-3; read-out: LC50
  CC50: > 100 µM
NCI-H226
  GI50: > 100 µM
  CC50: > 100 µM
LOX IMVI
  GI50: 47.8 µM
  CC50: > 100 µM
UO-31
  CC50: > 100 µM
SF-268
  GI50: > 100 µM
  CC50: > 100 µM
MOLT-4
  GI50: 8.54 µM
  CC50: > 100 µM
HT29
  GI50: 29.4 µM
  CC50: > 100 µM
COLO 205
  GI50: > 100 µM
  CC50: > 100 µM
HS 578T
  GI50: 84.8 µM
  CC50: > 100 µM
UACC-62
  GI50: > 100 µM
  CC50: > 100 µM
EKVX
  GI50: > 100 µM
  CC50: > 100 µM
MDA-MB-435
  GI50: > 100 µM
  CC50: > 100 µM
OVCAR-8
  GI50: > 100 µM
  CC50: > 100 µM
U251
  GI50: > 100 µM
  CC50: > 100 µM
ACHN
  GI50: > 100 µM
  CC50: > 100 µM
SF-295
  GI50: > 100 µM
  CC50: > 100 µM
M14
  GI50: > 100 µM
  CC50: > 100 µM
RPMI-8226
  GI50: 26.4 µM
  CC50: > 100 µM
T-47D
  GI50: > 100 µM
  CC50: > 100 µM
BT-549
  GI50: 35.5 µM
  CC50: > 100 µM
A498
  GI50: > 100 µM
  CC50: > 100 µM
UACC-257
  GI50: > 100 µM
  CC50: > 100 µM
DU-145
  GI50: > 100 µM
  CC50: > 100 µM
CCRF-CEM
  CC50: > 100 µM
OVCAR-5
  GI50: > 100 µM
  CC50: > 100 µM
MCF7
  GI50: 9.9 µM
  CC50: > 100 µM
SF-539
  GI50: > 100 µM
  CC50: > 100 µM
PC-3
  GI50: 6.16 µM
  CC50: > 100 µM
HL-60(TB)
  GI50: 44.7 µM
  CC50: > 100 µM
60 cancer cell lines
  activity at 10 µM: 40.9%
MDA-MB-231/ATCC
  GI50: 6.73 µM
  CC50: > 100 µM
NCI-H322M
  GI50: > 100 µM
  CC50: > 100 µM
OVCAR-4
  GI50: 18.9 µM
  CC50: > 100 µM

## Cc1ccc(C2CC(c3ccc(Nc4nc(NCCO)nc(Nc5ccc(Cl)cc5)n4)cc3)=Nc3c(N)nc(N)nc3N2)cc1 (stereo not shown) [33b]
HCT-116
  GI50: 1.62 µM
  CC50: 5.45 µM
HOP-62
  GI50: 1.68 µM
  CC50: 6.08 µM
SN12C
  GI50: 1.79 µM
  CC50: 6.39 µM
MALME-3M
  GI50: 1.7 µM
  CC50: 6.69 µM
NCI-H226
  GI50: 16.7 µM
  CC50: 88.2 µM
LOX IMVI
  GI50: 1.65 µM
  CC50: 5.69 µM
UO-31
  GI50: 1.64 µM
  CC50: 5.51 µM
SF-268
  GI50: 1.81 µM
  CC50: 7.35 µM
MOLT-4
  GI50: 1.38 µM
  CC50: > 100 µM
HT29
  GI50: 1.78 µM
  CC50: 7.14 µM
COLO 205
  GI50: 1.67 µM
  CC50: 6.09 µM
HS 578T
  GI50: 1.79 µM
  CC50: > 100 µM
UACC-62
  GI50: 1.82 µM
  CC50: 6.33 µM
EKVX
  GI50: 1.55 µM
  CC50: 5.71 µM
MDA-MB-435
  GI50: 1.73 µM
  CC50: 5.68 µM
OVCAR-8
  GI50: 1.8 µM
  CC50: 7.55 µM
U251
  GI50: 1.6 µM
  CC50: 5.65 µM
ACHN
  GI50: 1.72 µM
  CC50: 5.56 µM
SF-295
  GI50: 1.63 µM
  CC50: 5.63 µM
M14
  GI50: 1.84 µM
  CC50: 5.99 µM
RPMI-8226
  GI50: 1.83 µM
  CC50: > 100 µM
T-47D
  GI50: 1.67 µM
  CC50: 8.01 µM
BT-549
  GI50: 1.73 µM
  CC50: 5.69 µM
A498
  GI50: 3.85 µM
  CC50: 42 µM
UACC-257
  GI50: 1.84 µM
  CC50: 6.54 µM
DU-145
  GI50: 1.76 µM
  CC50: 5.77 µM
CCRF-CEM
  GI50: 1.67 µM
  CC50: > 100 µM
OVCAR-5
  GI50: 1.62 µM
  CC50: 5.59 µM
MCF7
  GI50: 1.46 µM
  CC50: 6.22 µM
SF-539
  GI50: 1.57 µM
  CC50: 5.63 µM
PC-3
  GI50: 1.74 µM
  CC50: 7.43 µM
HL-60(TB)
  GI50: 1.71 µM
  CC50: > 100 µM
60 cancer cell lines
  activity at 10 µM: -21.8%
MDA-MB-231/ATCC
  GI50: 1.67 µM
  CC50: 6.37 µM
NCI-H322M
  GI50: 1.59 µM
  CC50: 5.42 µM
OVCAR-4
  GI50: 1.85 µM
  CC50: 7.14 µM
